Laboratory results as given in patent US10670605B2, “Cysteine reactive probes and uses thereof” (The Scripps Research Institute, priority 2015, dated 2020).
Values belong to the compound of their own block, whether it stands above or below them.

Assays:
WT-IDH1 (C269) = target: T1, WT-IDH1 (C269) (Homo sapiens, UniProt O75874); assay: Blockade of IA-rhodamine labeling of WT-IDH1; assay type: binding; conditions: 2 μM protein in MDA-MB-231 lysate
T1 construct: Full length cDNAs encoding for IDH1 (Open Biosystems, Clone ID: 3880331) and IMPDH2; His6 (C); made in house; host or cells: E. coli BL21(DE3)

[1] = target: cysteines in MDA-MB-231 and Ramos cells (Homo sapiens, UniProt P16455); assay: Competitive isoTOP-ABPP in situ (fragment-treated cells); assay type: cell-based; conditions: 200 μM, insitu, ramos
[2] = target: cysteines in MDA-MB-231 and Ramos cells (Homo sapiens, UniProt P41226); assay: as above; assay type: cell-based; conditions: 200 μM, insitu, 231
[3] = target: T2, cysteines in MDA-MB-231 and Ramos cells (Homo sapiens, UniProt P42695); assay: as above; assay type: cell-based; conditions: 200 μM, insitu
T2 sequence (P42695 1-1498): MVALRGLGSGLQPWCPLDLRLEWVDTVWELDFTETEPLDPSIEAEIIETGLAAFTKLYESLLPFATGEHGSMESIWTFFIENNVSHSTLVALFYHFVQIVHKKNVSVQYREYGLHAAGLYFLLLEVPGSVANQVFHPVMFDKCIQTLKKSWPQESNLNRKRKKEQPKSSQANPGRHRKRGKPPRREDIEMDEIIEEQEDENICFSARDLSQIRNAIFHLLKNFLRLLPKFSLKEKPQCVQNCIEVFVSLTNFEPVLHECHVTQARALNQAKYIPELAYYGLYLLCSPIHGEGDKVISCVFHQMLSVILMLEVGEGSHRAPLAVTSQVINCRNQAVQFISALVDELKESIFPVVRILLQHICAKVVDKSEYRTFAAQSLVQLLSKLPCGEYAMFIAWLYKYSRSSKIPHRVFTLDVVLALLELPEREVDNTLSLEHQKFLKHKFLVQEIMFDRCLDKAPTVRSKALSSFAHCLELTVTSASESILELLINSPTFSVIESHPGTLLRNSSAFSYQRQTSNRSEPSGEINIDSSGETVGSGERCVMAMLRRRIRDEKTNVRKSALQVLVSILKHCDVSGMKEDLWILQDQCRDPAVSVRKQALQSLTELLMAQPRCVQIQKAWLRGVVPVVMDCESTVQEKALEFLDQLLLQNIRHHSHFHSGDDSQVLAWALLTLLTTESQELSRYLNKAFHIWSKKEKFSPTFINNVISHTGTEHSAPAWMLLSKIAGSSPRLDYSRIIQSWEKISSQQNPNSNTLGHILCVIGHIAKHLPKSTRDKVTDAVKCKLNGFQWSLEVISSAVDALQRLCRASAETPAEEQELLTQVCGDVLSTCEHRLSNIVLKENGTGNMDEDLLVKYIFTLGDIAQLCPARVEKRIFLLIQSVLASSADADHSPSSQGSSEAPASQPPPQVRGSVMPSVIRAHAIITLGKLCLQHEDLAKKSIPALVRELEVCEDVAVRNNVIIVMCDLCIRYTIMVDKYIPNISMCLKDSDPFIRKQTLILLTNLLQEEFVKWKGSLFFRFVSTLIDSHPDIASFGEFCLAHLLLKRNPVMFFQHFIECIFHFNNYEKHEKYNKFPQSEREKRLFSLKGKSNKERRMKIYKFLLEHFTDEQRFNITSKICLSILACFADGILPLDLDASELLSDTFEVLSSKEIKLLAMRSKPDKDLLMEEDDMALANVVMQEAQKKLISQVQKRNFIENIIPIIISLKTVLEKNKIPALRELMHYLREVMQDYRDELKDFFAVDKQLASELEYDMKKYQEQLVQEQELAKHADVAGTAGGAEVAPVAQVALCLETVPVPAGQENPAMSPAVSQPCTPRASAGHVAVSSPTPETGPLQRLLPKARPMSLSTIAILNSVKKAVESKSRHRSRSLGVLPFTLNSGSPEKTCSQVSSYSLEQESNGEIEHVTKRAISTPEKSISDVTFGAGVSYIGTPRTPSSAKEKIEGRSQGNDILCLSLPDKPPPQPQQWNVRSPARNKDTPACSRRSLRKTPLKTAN

[4] = target: cysteines in MDA-MB-231 and Ramos cells (Homo sapiens, UniProt Q99986); assay: as above; assay type: cell-based
[5] = target: cysteines in MDA-MB-231 and Ramos cells (Homo sapiens, UniProt Q9Y2S7); assay: as above; assay type: cell-based; conditions: 200 μM, insitu, 231
[6] = target: T3, cysteines in MDA-MB-231 and Ramos cells (Homo sapiens, UniProt Q8NEC7); assay: as above; assay type: cell-based; conditions: 200 μM, insitu
T3 sequence (Q8NEC7 1-633): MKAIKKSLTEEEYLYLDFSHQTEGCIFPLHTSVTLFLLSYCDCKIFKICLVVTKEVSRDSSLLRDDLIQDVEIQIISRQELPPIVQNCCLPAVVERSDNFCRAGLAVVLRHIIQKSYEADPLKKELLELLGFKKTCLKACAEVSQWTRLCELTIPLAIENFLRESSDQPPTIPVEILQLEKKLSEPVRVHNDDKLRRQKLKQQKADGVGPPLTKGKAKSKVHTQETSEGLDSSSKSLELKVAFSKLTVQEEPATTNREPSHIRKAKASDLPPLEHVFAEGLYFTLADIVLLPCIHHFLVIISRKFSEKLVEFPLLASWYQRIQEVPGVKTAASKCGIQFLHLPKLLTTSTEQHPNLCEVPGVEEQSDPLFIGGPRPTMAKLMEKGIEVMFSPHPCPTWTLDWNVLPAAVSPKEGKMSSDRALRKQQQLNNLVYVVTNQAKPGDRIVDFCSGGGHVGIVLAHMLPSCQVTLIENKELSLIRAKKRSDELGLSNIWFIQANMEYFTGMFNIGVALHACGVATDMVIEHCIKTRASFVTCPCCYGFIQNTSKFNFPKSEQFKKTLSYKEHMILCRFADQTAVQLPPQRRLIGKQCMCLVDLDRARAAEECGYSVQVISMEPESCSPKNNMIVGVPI

[7] = target: cysteines in MDA-MB-231 and Ramos cells (Homo sapiens, UniProt Q13613); assay: as above; assay type: cell-based; conditions: 200 μM, insitu
[8] = target: cysteines in MDA-MB-231 and Ramos cells (Homo sapiens, UniProt Q6PJG6); assay: as above; assay type: cell-based; conditions: 200 μM, insitu, ramos
cysteines in MDA-MB-231 and Ramos cells (Homo sapiens, UniProt Q6PJG6), sequence (Q6PJG6 whole entry): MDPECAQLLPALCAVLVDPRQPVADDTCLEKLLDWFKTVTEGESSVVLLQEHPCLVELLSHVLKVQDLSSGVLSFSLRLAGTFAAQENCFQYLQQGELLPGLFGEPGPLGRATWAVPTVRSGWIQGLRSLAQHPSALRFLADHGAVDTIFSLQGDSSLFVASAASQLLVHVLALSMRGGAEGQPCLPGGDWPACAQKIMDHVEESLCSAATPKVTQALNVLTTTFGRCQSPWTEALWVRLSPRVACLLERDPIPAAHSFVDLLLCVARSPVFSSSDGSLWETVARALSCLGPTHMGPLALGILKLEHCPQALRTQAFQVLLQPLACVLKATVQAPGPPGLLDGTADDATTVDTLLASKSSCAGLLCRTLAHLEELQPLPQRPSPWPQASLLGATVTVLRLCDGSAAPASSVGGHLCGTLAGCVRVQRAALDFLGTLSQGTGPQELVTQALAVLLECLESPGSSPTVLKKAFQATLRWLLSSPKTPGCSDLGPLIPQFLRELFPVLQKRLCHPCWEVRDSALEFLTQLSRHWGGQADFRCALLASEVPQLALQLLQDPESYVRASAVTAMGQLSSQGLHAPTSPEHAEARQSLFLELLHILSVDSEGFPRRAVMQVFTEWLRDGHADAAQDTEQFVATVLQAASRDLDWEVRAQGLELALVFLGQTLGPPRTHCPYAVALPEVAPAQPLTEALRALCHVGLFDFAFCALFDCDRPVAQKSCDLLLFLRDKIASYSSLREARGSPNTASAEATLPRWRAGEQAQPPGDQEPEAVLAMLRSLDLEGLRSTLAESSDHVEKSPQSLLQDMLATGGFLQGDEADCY

cysteines in MDA-MB-231 and Ramos cells (Homo sapiens, UniProt Q9Y2S7), sequence (Q9Y2S7 52-368): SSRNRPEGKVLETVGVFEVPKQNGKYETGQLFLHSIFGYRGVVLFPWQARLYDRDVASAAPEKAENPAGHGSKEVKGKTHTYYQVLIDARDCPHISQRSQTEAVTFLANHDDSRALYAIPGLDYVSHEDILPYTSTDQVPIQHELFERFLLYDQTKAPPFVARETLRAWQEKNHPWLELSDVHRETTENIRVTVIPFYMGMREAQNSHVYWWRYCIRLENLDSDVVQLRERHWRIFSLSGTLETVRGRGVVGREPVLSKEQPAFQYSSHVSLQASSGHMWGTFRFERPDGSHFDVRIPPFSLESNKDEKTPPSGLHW
cysteines in MDA-MB-231 and Ramos cells (Homo sapiens, UniProt Q99986), sequence (Q99986 whole entry): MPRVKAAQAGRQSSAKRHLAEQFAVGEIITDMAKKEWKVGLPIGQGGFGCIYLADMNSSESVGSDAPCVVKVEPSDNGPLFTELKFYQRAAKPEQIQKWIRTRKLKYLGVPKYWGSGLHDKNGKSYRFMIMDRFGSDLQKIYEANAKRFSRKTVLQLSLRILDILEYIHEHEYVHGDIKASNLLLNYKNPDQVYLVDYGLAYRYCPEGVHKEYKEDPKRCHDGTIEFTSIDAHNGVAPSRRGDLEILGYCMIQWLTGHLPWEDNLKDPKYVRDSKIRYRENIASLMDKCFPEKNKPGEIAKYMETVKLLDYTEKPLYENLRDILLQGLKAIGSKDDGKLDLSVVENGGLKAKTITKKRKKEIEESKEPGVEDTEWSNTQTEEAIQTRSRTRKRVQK
cysteines in MDA-MB-231 and Ramos cells (Homo sapiens, UniProt P41226), sequence (P41226 whole entry): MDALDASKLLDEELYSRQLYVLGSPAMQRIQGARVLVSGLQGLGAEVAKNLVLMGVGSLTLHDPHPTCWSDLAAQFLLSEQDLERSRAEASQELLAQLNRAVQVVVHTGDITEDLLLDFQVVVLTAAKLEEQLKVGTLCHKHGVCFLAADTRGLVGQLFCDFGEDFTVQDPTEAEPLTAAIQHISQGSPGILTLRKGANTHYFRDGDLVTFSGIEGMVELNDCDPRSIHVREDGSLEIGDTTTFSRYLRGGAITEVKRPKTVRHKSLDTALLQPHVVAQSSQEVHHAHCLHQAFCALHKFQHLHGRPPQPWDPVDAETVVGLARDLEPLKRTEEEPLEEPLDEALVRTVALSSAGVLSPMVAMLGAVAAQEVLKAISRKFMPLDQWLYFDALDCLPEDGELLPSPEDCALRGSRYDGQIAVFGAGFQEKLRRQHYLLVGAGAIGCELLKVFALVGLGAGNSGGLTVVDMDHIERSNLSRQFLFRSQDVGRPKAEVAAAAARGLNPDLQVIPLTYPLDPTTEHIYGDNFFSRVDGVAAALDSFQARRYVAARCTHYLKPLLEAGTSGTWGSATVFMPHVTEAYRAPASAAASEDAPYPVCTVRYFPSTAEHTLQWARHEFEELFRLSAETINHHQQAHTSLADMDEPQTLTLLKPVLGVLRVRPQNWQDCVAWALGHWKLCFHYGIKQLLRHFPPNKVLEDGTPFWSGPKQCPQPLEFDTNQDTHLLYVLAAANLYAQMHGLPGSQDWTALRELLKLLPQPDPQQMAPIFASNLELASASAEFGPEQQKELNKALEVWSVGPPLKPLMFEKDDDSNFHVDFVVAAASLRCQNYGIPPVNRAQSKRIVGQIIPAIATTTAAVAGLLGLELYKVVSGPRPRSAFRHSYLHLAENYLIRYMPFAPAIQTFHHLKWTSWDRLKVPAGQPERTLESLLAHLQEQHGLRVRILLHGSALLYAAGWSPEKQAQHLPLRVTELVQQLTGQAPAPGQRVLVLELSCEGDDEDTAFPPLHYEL
T1 sequence (O75874 whole entry): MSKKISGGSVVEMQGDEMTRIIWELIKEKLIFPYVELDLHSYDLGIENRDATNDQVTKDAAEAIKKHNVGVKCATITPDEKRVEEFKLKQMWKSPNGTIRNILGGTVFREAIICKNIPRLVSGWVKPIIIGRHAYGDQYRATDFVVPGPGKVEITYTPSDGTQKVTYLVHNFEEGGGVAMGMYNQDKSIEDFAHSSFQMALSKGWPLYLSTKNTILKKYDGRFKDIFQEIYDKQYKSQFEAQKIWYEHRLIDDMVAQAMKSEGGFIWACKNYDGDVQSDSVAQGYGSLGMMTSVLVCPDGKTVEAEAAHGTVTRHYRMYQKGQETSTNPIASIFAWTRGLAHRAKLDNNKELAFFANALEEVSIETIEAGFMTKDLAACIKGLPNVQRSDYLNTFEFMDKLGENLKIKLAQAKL
cysteines in MDA-MB-231 and Ramos cells (Homo sapiens, UniProt P16455), sequence (P16455 whole entry, the tested form may be a part): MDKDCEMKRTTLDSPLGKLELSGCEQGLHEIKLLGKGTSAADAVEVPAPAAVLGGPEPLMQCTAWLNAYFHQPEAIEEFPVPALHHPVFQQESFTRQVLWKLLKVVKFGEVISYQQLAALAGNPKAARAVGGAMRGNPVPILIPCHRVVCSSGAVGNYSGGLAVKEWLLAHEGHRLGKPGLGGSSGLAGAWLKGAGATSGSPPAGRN

IC50 (WT-IDH1 (C269)): > 50000 nM
Structure (SMILES): COc1ccc2c(c1)CCCN2C(=O)CCl [compound 2]

isoTOP-ABPP ratio, cysteine P16455_C145 [1]: 20.0 | isoTOP-ABPP ratio, cysteine P41226_C599 [2]: 8.0 | isoTOP-ABPP ratio, cysteine P42695_C541 [3]; 231: 20.0 | isoTOP-ABPP ratio, cysteine P42695_C541 ([3]; ramos): 6.5 | isoTOP-ABPP ratio, cysteine Q99986_C50 ([4]; 200 μM, insitu, ramos): 0 .7 | isoTOP-ABPP ratio, cysteine Q9Y2S7_C143 [5]: 13.9
Structure (SMILES): O=C(CCl)N1CCN(S(=O)(=O)c2ccccc2F)CC1 [compound 10]

isoTOP-ABPP ratio, cysteine Q8NEC7_C140 [6]; 231: 1.8 | isoTOP-ABPP ratio, cysteine Q8NEC7_C140 ([6]; ramos): 20.0
Structure (SMILES): O=C(CCl)NCCc1c[nH]c2ccccc12 [compound 13]

Structure (SMILES): O=C(CCl)N1CCC(C(O)(c2ccccc2)c2ccccc2)CC1 [compound 20]
IC50 (WT-IDH1 (C269)): 2900 nM

isoTOP-ABPP ratio, cysteine P41226_C599 [2]: 1.0 | isoTOP-ABPP ratio, cysteine P42695_C541 [3]; 231: 2.3 | isoTOP-ABPP ratio, cysteine Q13613_C117 [7]; 231: 0.9
Structure (SMILES): O=C(CCl)NC12CC3CC(CC(C3)C1)C2 [compound 21]

isoTOP-ABPP ratio Q13613_C117 ([7]; ramos): 1.5 | isoTOP-ABPP ratio Q6PJG6_C673 [8]: 4.6
Structure (SMILES): O=C(CCl)N1CCN(CC(=O)N2CCOCC2)CC1 [compound 29]

isoTOP-ABPP ratio, P16455_C145 [1]: 1.2 | isoTOP-ABPP ratio Q6PJG6_C673 [8]: 20.0
Structure (SMILES): C=CC(=O)N(Cc1cccnc1)c1cc(C(F)(F)F)cc(C(F)(F)F)c1 [compound 31]

isoTOP-ABPP ratio Q9Y2S7_C143 [5]: 1.2
Structure (SMILES): Cc1ccc(C=C(C#N)C(=O)NCCN2CCOCC2)cc1 [compound 41]

isoTOP-ABPP ratio Q8NEC7_C140 [6]; 231: 20.0 | reactivity profile of liganded cysteine Q99986_C50 with fragment electrophile (isoTOP-ABPP ratio) ([4]; cysteine Q99986_C50, fragment 200 μM, in situ, 231 (MDA-MB-231) cells): 4.1
Structure (SMILES): CC1CCc2ccccc2N1C(=O)CCl (centres unmarked) [compound 45]
